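Step 1: Grow cells in 96-well plates. Step 2: Expose to compound for 48 hours at 5 concentrations. Step 3: Interpolate endpoints linearly; if unreached, use highest concentration. At the GI50, growth is halved.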 Active and inactive are the calls of the source. Cut-off read from the data, not from the text of the source: active = GI50 up to about 1.1 µM and inactive = higher.
Assays:
Experiment in all cases: growth of human tumour cells (NCI), 48 h
HOP-62 = system: HOP-62
SN12C = system: SN12C
COLO 205 = system: COLO 205
SK-MEL-28 = system: SK-MEL-28
HCT-116 = system: HCT-116
DMS-114 = system: DMS-114
SF-295 = system: SF-295
NCI-H522 = system: NCI-H522
HT-29 = system: HT-29
CCRF-CEM = system: CCRF-CEM
IGROV-1 = system: IGROV-1
OVCAR-8 = system: OVCAR-8
RPMI-8226 = system: RPMI-8226
UO-31 = system: UO-31
K562 = system: K562
MOLT-4 = system: MOLT-4
DMS-273 = system: DMS-273
RXF 393 = system: RXF 393
SF-539 = system: SF-539
NCI/ADR-RES = system: NCI/ADR-RES

Compound	GI50 (HOP-62)	GI50 (SN12C)	GI50 (COLO 205)	GI50 (SK-MEL-28)	GI50 (HCT-116)	GI50 (DMS-114)	GI50 (SF-295)	GI50 (NCI-H522)	GI50 (HT-29)	GI50 (CCRF-CEM)	GI50 (IGROV-1)	GI50 (OVCAR-8)	GI50 (RPMI-8226)	GI50 (UO-31)	GI50 (K562)	GI50 (MOLT-4)	GI50 (DMS-273)	GI50 (RXF 393)	GI50 (SF-539)	GI50 (NCI/ADR-RES)
O=C1OC(=O)C2C1C1C(c3ccccc3)=C(c3ccccc3)C2(O)C2C(=O)OC(=O)C12 (stereo unspecified)	> 100 µM (inactive)	96.2 µM (inactive)	> 100 µM (inactive)	98.4 µM (inactive)	54.8 µM (inactive)	28.6 µM (inactive)	> 100 µM (inactive)	68.7 µM (inactive)	46.9 µM (inactive)	37.5 µM (inactive)	> 100 µM (inactive)	63.8 µM (inactive)	38.6 µM (inactive)	> 100 µM (inactive)	45.1 µM (inactive)	32.5 µM (inactive)	–	–	–	–
Cc1cc2c(cc1C)[n+]([O-])c(C(=O)CC(=O)C(=O)Nc1ccccc1C)c(C)[n+]2[O-]	> 100 µM (inactive)	> 100 µM (inactive)	46.5 µM (inactive)	> 100 µM (inactive)	> 100 µM (inactive)	–	> 100 µM (inactive)	54 µM (inactive)	> 100 µM (inactive)	40.7 µM (inactive)	> 100 µM (inactive)	> 100 µM (inactive)	> 100 µM (inactive)	96.6 µM (inactive)	> 100 µM (inactive)	> 100 µM (inactive)	> 100 µM (inactive)	> 100 µM (inactive)	> 100 µM (inactive)	–
O=C1C[C@@H]2[C@@H](CCC23CCCC3)N1	> 100 µM (inactive)	> 100 µM (inactive)	> 100 µM (inactive)	> 100 µM (inactive)	> 100 µM (inactive)	–	> 100 µM (inactive)	> 100 µM (inactive)	> 100 µM (inactive)	> 100 µM (inactive)	> 100 µM (inactive)	> 100 µM (inactive)	> 100 µM (inactive)	> 100 µM (inactive)	> 100 µM (inactive)	> 100 µM (inactive)	> 100 µM (inactive)	> 100 µM (inactive)	> 100 µM (inactive)	–
CC1=C(c2ccccc2)C(c2ccccc2)=C(c2ccccc2)C2(c3ccccc3)C(=O)C(C)CN12 (stereo unspecified)	> 100 µM (inactive)	41.7 µM (inactive)	–	> 100 µM (inactive)	45.3 µM (inactive)	–	13.3 µM (inactive)	15.7 µM (inactive)	42.3 µM (inactive)	–	99.5 µM (inactive)	17.9 µM (inactive)	29.2 µM (inactive)	> 100 µM (inactive)	> 10 µM (inactive)	16.6 µM (inactive)	46.1 µM (inactive)	26.1 µM (inactive)	31.5 µM (inactive)	–
Cc1c(C)n(COCCO)c2ncnc(N)c12	–	> 100 µM (inactive)	> 100 µM (inactive)	> 100 µM (inactive)	–	–	> 100 µM (inactive)	> 100 µM (inactive)	> 100 µM (inactive)	> 100 µM (inactive)	> 100 µM (inactive)	> 100 µM (inactive)	> 100 µM (inactive)	> 100 µM (inactive)	> 100 µM (inactive)	> 100 µM (inactive)	> 100 µM (inactive)	> 100 µM (inactive)	> 100 µM (inactive)	–
O=C1C=CC(=O)c2c1ccc1c3ccccc3n(-c3ccccn3)c21	–	55.1 µM (inactive)	14.2 µM (inactive)	> 100 µM (inactive)	13.2 µM (inactive)	20.6 µM (inactive)	> 100 µM (inactive)	4.15 µM (inactive)	28.4 µM (inactive)	2.5 µM (inactive)	–	24.7 µM (inactive)	25.6 µM (inactive)	19.1 µM (inactive)	4.98 µM (inactive)	4.8 µM (inactive)	39.4 µM (inactive)	–	32 µM (inactive)	–
CCOc1ccc2c(c1)[n+]([O-])c(-c1ccc(Br)cc1)c(N)[n+]2[O-]	67.6 µM (inactive)	71 µM (inactive)	24.2 µM (inactive)	30.9 µM (inactive)	–	30.4 µM (inactive)	> 100 µM (inactive)	16.6 µM (inactive)	64.4 µM (inactive)	53.1 µM (inactive)	67 µM (inactive)	57.7 µM (inactive)	52.4 µM (inactive)	67.3 µM (inactive)	75.5 µM (inactive)	40.9 µM (inactive)	39.4 µM (inactive)	–	34.4 µM (inactive)	–
CN(C)c1ccc(/C=N\N2C(=O)c3ccccc3C2=O)cc1	> 100 µM (inactive)	> 100 µM (inactive)	–	> 100 µM (inactive)	> 100 µM (inactive)	> 100 µM (inactive)	> 100 µM (inactive)	–	> 100 µM (inactive)	> 100 µM (inactive)	> 100 µM (inactive)	> 100 µM (inactive)	> 100 µM (inactive)	> 100 µM (inactive)	> 100 µM (inactive)	> 100 µM (inactive)	> 100 µM (inactive)	> 100 µM (inactive)	> 100 µM (inactive)	–
O=C(N/C(=C/c1cccc([N+](=O)[O-])c1)c1nc2cc(Cl)ccc2[nH]1)c1ccccc1	17.7 µM (inactive)	14.3 µM (inactive)	41.9 µM (inactive)	22.6 µM (inactive)	8.95 µM (inactive)	8.51 µM (inactive)	36.9 µM (inactive)	4.07 µM (inactive)	8.95 µM (inactive)	1.07 µM (active)	4.53 µM (inactive)	7.5 µM (inactive)	2.71 µM (inactive)	2.18 µM (inactive)	6.21 µM (inactive)	3.83 µM (inactive)	–	12.4 µM (inactive)	3.51 µM (inactive)	–
CCCCCCN(CCCCCC)C1=CC(=O)C(=O)c2ccccc21	18.7 µM (inactive)	16.4 µM (inactive)	16.7 µM (inactive)	17.6 µM (inactive)	17.5 µM (inactive)	–	15.7 µM (inactive)	11.6 µM (inactive)	15.1 µM (inactive)	14.9 µM (inactive)	17.2 µM (inactive)	16.1 µM (inactive)	16.7 µM (inactive)	13.4 µM (inactive)	17.1 µM (inactive)	18.7 µM (inactive)	19.8 µM (inactive)	25.1 µM (inactive)	17.2 µM (inactive)	–
COc1ccc2c(CCNC(=O)/C=C/c3ccccc3)c(C(C)=O)[nH]c2c1[N+](=O)[O-]	18.8 µM (inactive)	42.4 µM (inactive)	8.85 µM (inactive)	14.5 µM (inactive)	13.7 µM (inactive)	13.6 µM (inactive)	3.87 µM (inactive)	3.35 µM (inactive)	4.99 µM (inactive)	5.35 µM (inactive)	18.3 µM (inactive)	17.9 µM (inactive)	5.98 µM (inactive)	31.3 µM (inactive)	4.49 µM (inactive)	5.69 µM (inactive)	5.64 µM (inactive)	–	9.86 µM (inactive)	–
O=S1(=O)NN=C(NCc2ccc(Cl)cc2)c2ccccc21	–	> 100 µM (inactive)	> 100 µM (inactive)	–	> 100 µM (inactive)	> 100 µM (inactive)	> 100 µM (inactive)	–	> 100 µM (inactive)	45.2 µM (inactive)	> 100 µM (inactive)	> 100 µM (inactive)	30.6 µM (inactive)	> 100 µM (inactive)	38 µM (inactive)	22.8 µM (inactive)	> 100 µM (inactive)	30.5 µM (inactive)	> 100 µM (inactive)	–
Nc1ccn(CCCC(c2ccccc2)P(=O)(O)O)c(=O)n1 (stereo unspecified)	> 100 µM (inactive)	> 100 µM (inactive)	> 100 µM (inactive)	> 100 µM (inactive)	> 100 µM (inactive)	> 100 µM (inactive)	> 100 µM (inactive)	> 100 µM (inactive)	> 100 µM (inactive)	> 100 µM (inactive)	> 100 µM (inactive)	> 100 µM (inactive)	> 100 µM (inactive)	> 100 µM (inactive)	> 100 µM (inactive)	–	> 100 µM (inactive)	–	> 100 µM (inactive)	–
C=C1CC2CC[C@@]34C[C@@H]5O[C@@H]6C(O[C@H]7CC[C@H](CC(=O)OC8[C@@H](C)C9OC%10C[C@]%11(C[C@@H]%12O[C@@]%13(C[C@@H](C)[C@@H]%12O%11)C[C@H](C)[C@@H]%11OC%12CC(C(O)CO)OC%12C[C@@H]%11O%13)OC%10CC9O[C@H]8C[C@H]8O[C@@H](CC[C@@H]1O2)C[C@@H](C)C8=C)O[C@@H]7[C@@H]6O3)C5O4 (stereo partly specified)	0.00141 µM (active)	0.00313 µM (active)	0.000667 µM (active)	0.0014 µM (active)	0.000582 µM (active)	–	0.000453 µM (active)	0.000213 µM (active)	0.000357 µM (active)	0.000977 µM (active)	0.00248 µM (active)	0.00249 µM (active)	0.00185 µM (active)	0.00673 µM (active)	0.000755 µM (active)	0.00135 µM (active)	0.000499 µM (active)	0.000685 µM (active)	0.000933 µM (active)	0.00471 µM (active)
O=C(O)CN(c1ccc(F)cc1)S(=O)(=O)c1ccccc1	–	> 100 µM (inactive)	> 100 µM (inactive)	> 100 µM (inactive)	–	–	> 100 µM (inactive)	> 100 µM (inactive)	> 100 µM (inactive)	> 100 µM (inactive)	> 100 µM (inactive)	> 100 µM (inactive)	> 100 µM (inactive)	> 100 µM (inactive)	> 100 µM (inactive)	> 100 µM (inactive)	> 100 µM (inactive)	> 100 µM (inactive)	> 100 µM (inactive)	–
